Here are results for eleven compounds from patent US7838674B2, “Tetracyclic lactame derivatives” (Novartis AG, priority 2007, dated 2010).

Where a name gives a salt, the structure may show the parent alone. Some results are limits rather than exact numbers.

The experiment concerns the target T1, MAPKAPK2 enzyme (HIS-MK2, Invitrogen PV4019) (Homo sapiens, UniProt P49137).
T1 construct: His; purchased Invitrogen PV4019
The experiment is described as follows: Alternative MAPKAPK2 assay (Caliper microfluidic mobility shift, HSP27-peptide). As to conditions: HIS-MK2 0.013 nM, ATP 10 μM, 60 min at 30° C. In kind it is biochemical.

T1 sequence (P49137 whole entry): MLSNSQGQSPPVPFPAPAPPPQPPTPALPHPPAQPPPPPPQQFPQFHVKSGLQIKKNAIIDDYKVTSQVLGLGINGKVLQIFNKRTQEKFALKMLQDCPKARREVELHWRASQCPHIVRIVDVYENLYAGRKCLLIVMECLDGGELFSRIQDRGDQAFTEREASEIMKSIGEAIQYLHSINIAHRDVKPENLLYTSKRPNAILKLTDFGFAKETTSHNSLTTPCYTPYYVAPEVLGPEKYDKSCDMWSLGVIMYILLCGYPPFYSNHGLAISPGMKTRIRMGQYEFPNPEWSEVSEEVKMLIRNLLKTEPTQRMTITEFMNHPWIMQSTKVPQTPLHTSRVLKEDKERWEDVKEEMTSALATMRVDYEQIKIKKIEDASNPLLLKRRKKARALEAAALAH

Regarding `CCN1CC2(C1)c1[nH]c3c(c1C(=O)NC21CC1)CCc1cnc(-c2ccccc2F)cc1-3` [Example 253, 2-[3-(1-Amino-cyclopropyl)-1-ethyl-azetidin-3-yl]-8-(2-fluoro-phenyl)-4,5-dihydro-1H-pyrrolo[2,3-f]isoquinoline-3-carboxylic acid lactam], the IC50 came to 15 nM.

As for `CC(C)Oc1ccc(-c2cc3c(cn2)CCc2c-3[nH]c3c2C(=O)NC2(CC2)C32CN(C)C2)cn1` [Example 254, 2-[3-(1-Amino-cyclopropyl)-1-methyl-azetidin-3-yl]-8-(6-isopropoxy-pyridin-3-yl)-4,5-dihydro-1H-pyrrolo[2,3-f]isoquinoline-3-carboxylic acid lactam], the IC50 is less than 3 nM.

Turning to `COc1ccc(-c2cc3c(cn2)CCc2c-3[nH]c3c2C(=O)NC2(CC2)C32CN(C)C2)cn1` [Example 255, 2-[3-(1-Amino-cyclopropyl)-1-methyl-azetidin-3-yl]-8-(6-methoxy-pyridin-3-yl)-4,5-dihydro-1H-pyrrolo[2,3-f]isoquinoline-3-carboxylic acid lactam], the IC50 was less than 3 nM.

With `CN1CC2(C1)c1[nH]c3c(c1C(=O)NC21CC1)CCc1cnc(-c2ccccc2F)cc1-3` [Example 256, 2-[3-(1-Amino-cyclopropyl)-1-methyl-azetidin-3-yl]-8-(2-fluoro-phenyl)-4,5-dihydro-1H-pyrrolo[2,3-f]isoquinoline-3-carboxylic acid lactam], the IC50 is less than 3 nM.

With `CN1CC2(C1)c1[nH]c3c(c1C(=O)NC21CC1)CCc1cnc(-c2ccc(OCCN4CCOCC4)cc2)cc1-3` [Example 259, 2-[3-(1-Amino-cyclopropyl)-1-methyl-azetidin-3-yl]-8-[4-(2-morpholin-4-yl-ethoxy)-phenyl]-4,5-dihydro-1H-pyrrolo[2,3-f]isoquinoline-3-carboxylic acid lactam], the IC50 was less than 3 nM.

Regarding `CN1CC2(C1)c1[nH]c3c(c1C(=O)NC21CC1)CCc1cnc(-c2ccc(CCCN4CCOCC4)cc2)cc1-3` [Example 260, 2-[3-(1-Amino-cyclopropyl)-1-methyl-azetidin-3-yl]-8-[4-(3-morpholin-4-yl-propyl)-phenyl]-4,5-dihydro-1H-pyrrolo[2,3-f]isoquinoline-3-carboxylic acid lactam], the 50% inhibitory concentration (IC50) is less than 3 nM.

On to `O=C(NCc1ccccc1)c1cccc(-c2cc3c(cn2)CCc2c-3[nH]c3c2C(=O)NCC32CN(CC3CC3)C2)c1` [Example 261, 2-(3-Aminomethyl-1-cyclopropylmethyl-azetidin-3-yl)-8-(3-benzylcarbamoyl-phenyl)-4,5-dihydro-1H-pyrrolo[2,3-f]isoquinoline-3-carboxylic acid lactam], for which the IC50 worked out at 11 nM.

Regarding `CN1CC2(CNC(=O)c3c2[nH]c2c3CCc3cnc(-c4cccc(C(=O)NCc5ccccc5)c4)cc3-2)C1` [Example 262, 2-(3-Aminomethyl-1-methyl-azetidin-3-yl)-8-(3-benzylcarbamoyl-phenyl)-4,5-dihydro-1H-pyrrolo[2,3-f]isoquinoline-3-carboxylic acid lactam], the half-maximal inhibitory concentration (IC50) was less than 3 nM.

On to `CCN1CC2(CNC(=O)c3c2[nH]c2c3CCc3cnc(-c4cccc(C(=O)NCc5ccccc5)c4)cc3-2)C1` [Example 263, 2-(3-Aminomethyl-1-ethyl-azetidin-3-yl)-8-(3-benzylcarbamoyl-phenyl)-4,5-dihydro-1H-pyrrolo[2,3-f]isoquinoline-3-carboxylic acid lactam], for which the IC50 was less than 3 nM.

For the compound `O=C1NC2(CC2)Cc2[nH]c3c(c21)CCc1cnc(Oc2ccc(F)cc2F)nc1-3` [Example 266, 2-(1-Amino-cyclopropylmethyl)-8-(2,4-difluoro-phenoxy)-4,5-dihydro-1H-1,7,9-triaza-cyclopenta[a]naphthalene-3-carboxylic acid lactam], the half-maximal inhibitory concentration (IC50) was greater than 10 nM.

With `COc1ccc(-c2ncc3c(n2)-c2[nH]c4c(c2CC3)C(=O)NCC42CNC2)cc1F` [Example 268, 2-(3-Aminomethyl-azetidin-3-yl)-8-(3-fluoro-4-methoxy-phenyl)-4,5-dihydro-1H-1,7,9-triaza-cyclopenta[a]naphthalene-3-carboxylic acid lactan hydrochloride], the concentration for half-maximal inhibition (IC50) stood at 8 nM.
